The target in this test is human recombinant GABAA α5β3γ2 receptor (Homo sapiens (Human), UniProt P18507+P31644). Put plainly: Radioligand ([3H]Ro151788) receptor binding assay. Conditions: membranes of HEK cells expressing human recombinant GABAA α5β3γ2; 0.5 nM [3H]Ro151788; 60 minutes at 4° C.; read-out: hGABAA α5 Ki. The method, then: The GABAA α5β3γ2 protein used for the receptor binding assay was derived from membranes produced from HEK cells (Millipore CYL3073) expressing the human recombinant GABAA α5β3γ2 receptor. Cells were stored and cultured in-house according to the instructions provided by the vendor (Millipore). Cell pellet was homogenized in 10 times modified Krebs Henseleit buffer (membrane preparation buffer): 20 mM Tris, 120 mM NaCl, 100 mM KCl, 25 mM CaCl2 and 25 mM MgCl2 pH=7.4 at 4° C. using Ultra Turrax (Janke&Kunkel) maximal speed for 15 seconds. The homogenate was centrifuged at 40,000 g for 30 minutes at 4° C. Supernatant was discarded and the resulting pellet was washed in membrane preparation buffer. Pellet was resuspended in membrane preparation buffer and aliquots of 1.4 mL ampules were stored at −70° C. until use.
human recombinant GABAA α5β3γ2 receptor, sequence (P31644 32-462): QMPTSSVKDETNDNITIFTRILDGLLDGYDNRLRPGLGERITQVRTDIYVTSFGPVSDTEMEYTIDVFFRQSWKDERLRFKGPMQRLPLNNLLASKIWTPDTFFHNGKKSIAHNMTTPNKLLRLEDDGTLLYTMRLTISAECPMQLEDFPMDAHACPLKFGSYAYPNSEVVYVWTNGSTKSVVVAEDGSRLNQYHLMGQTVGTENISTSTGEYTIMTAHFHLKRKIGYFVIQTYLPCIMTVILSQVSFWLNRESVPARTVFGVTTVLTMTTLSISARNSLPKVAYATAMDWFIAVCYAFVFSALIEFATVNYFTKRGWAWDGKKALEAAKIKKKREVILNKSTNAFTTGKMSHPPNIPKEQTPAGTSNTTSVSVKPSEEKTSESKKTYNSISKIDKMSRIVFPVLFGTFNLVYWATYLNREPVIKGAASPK
human recombinant GABAA α5β3γ2 receptor, sequence (P28472 26-473 partner): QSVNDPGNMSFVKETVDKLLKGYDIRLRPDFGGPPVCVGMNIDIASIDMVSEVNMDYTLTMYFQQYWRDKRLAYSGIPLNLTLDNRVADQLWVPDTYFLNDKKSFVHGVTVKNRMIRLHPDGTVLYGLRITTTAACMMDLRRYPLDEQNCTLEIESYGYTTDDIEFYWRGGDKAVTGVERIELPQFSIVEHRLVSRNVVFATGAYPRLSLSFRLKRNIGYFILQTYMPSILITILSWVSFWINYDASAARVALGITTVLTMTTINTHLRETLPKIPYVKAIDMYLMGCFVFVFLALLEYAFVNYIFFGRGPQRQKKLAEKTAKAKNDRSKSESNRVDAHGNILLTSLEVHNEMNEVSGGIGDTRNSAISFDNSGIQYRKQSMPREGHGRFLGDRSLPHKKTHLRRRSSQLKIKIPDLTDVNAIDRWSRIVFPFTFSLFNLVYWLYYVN
human recombinant GABAA α5β3γ2 receptor, sequence (P18507 40-475): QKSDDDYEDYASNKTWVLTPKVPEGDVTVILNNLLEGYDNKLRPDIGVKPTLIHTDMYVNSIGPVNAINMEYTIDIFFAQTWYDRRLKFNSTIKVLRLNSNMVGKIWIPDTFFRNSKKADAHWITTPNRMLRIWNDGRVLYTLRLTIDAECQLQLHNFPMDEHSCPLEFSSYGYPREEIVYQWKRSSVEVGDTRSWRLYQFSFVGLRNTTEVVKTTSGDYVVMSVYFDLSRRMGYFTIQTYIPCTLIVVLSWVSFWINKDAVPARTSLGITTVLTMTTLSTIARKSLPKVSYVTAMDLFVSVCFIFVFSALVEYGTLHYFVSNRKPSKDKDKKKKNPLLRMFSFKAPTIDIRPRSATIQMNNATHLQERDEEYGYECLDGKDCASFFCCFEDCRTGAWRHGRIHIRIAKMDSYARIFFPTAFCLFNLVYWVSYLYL
Receptor binding assays were performed in 96-well format in deep-well plates. For each 96-well plate one ampule of membrane homogenate was thawed and diluted in binding buffer (50 mM Tris pH=7.4, 100 mM KCl) and 200 μL was dispensed into each well. Radioligand [^3H]Ro151788 (Perkin Elmer: NET757250UC) was prepared in binding buffer and added to each well in 50 μL volume to give final concentration of 0.5 nM. Test compounds in suitable concentration(s) were added in additional 50 μL. The final assay volume was 300 μL. Incubation was carried out for 60 minutes at 4° C. For non-specific binding 10 μM unlabeled diazepam was used. After incubation samples were filtered over UniFilter® GF/BT using Filtermate Harvester (Perkin Elmer) and washed with 5×1 mL binding buffer. The plate was dried at 40° C. for an hour and 40 μL Microscint (Perkin Elmer) scintillation cocktail was added to each well. The plate was read in Microbeta (Perkin Elmer).
The specific radioligand binding (SB) was defined as the difference between total binding (Tot) and the non-specific binding (NSB). Results are expressed as a percent inhibition of specific binding obtained in the presence of compound of interest.
For IC50 and Ki determination a minimum of six drug concentrations in triplicate were used. IC50 values (i.e. concentration of compound giving 50% inhibition of specific binding) were calculated from concentration-displacement curves by sigmoidal fitting using Origin 7.5 software. Ki values (i.e. inhibition constants) were calculated using the Cheng-Prusoff equation Ki=IC50/[1+(L/KD)], where [L] is the radioligand concentration and KD the affinity of the labelled ligand for receptor. KD was determined from the Saturation analyses.
Consider `Cc1ccc(-c2nnn(C)c2COc2cc3c(cn2)CN(C(=O)C(C)C)CC3)cn1` [Example 63, 2-methyl-1-(6-{[1-methyl-4-(6-methylpyridin-3-yl)-1H-1,2,3-triazol-5-yl]methoxy}-1,2,3,4-tetrahydro-2,7-naphthyridin-2-yl)propan-1-one], for which the inhibition constant (Ki) is 43 nM.
The value for `Cc1ccc(-c2noc(C)c2COc2cc3c(nn2)CN(C(=O)C(C)C)CC3)cn1` [Example 31, 2-methyl-1-(3-{[5-methyl-3-(6-methylpyridin-3-yl)-1,2-oxazol-4-yl]methoxy}-5H,6H,7H,8H-pyrido[3,4-c]pyridazin-7-yl)propan-1-one] was 4.3 nM.
The value for `Cc1ccc(-c2noc(C)c2COc2cc3c(nn2)CN(C(=O)C2CCOCC2)CC3)cn1` [Example 27, 2-methyl-5-[5-methyl-4-({[7-(oxane-4-carbonyl)-5H,6H,7H,8H-pyrido[3,4-c]pyridazin-3-yl]oxy}methyl)-1,2-oxazol-3-yl]pyridine] was 10 nM; that for `CC(=O)N1CCc2cc(OCc3c(C)nnn3-c3ccc(C(F)F)nc3)ncc2C1` [Example 55, 1-[6-({1-[6-(difluoromethyl)pyridin-3-yl]-4-methyl-1H-1,2,3-triazol-5-yl}methoxy)-3,4 dihydro-2,7-naphthyridin-2(1H)-yl]ethanone] was 1.1 nM; that for `Cc1ccc(-c2nnn(C)c2COc2cc3c(cn2)CN(C(=O)C2CC2)CC3)cn1` [Example 65, 2-cyclopropanecarbonyl-6-{[1-methyl-4-(6-methylpyridin-3-yl)-1H-1,2,3-triazol-5-yl]methoxy}-1,2,3,4-tetrahydro-2,7-naphthyridine] was 52 nM.
Regarding `CC(=O)N1CCc2cc(OCc3c(-c4ccc(C)nc4)noc3C)ncc2C1` [Example 1, 1-[6-{[5-methyl-3-(6-methylpyridin-3-yl)-1,2-oxazol-4-yl]methoxy}-3,4-dihydro-2,7-naphthyridin-2(1H)-yl]ethanone], the inhibition constant (Ki) was 1.7 nM.
The value for `Cc1ccc(-c2noc(C)c2COc2cc3c(cn2)CN(C(=O)C2CCS(=O)(=O)CC2)CC3)cn1` [Example 8, 4-(6-{[5-methyl-3-(6-methylpyridin-3-yl)-1,2-oxazol-4-yl]methoxy}-1,2,3,4-tetrahydro-2,7-naphthyridine-2-carbonyl)-1lambda6-thiane-1,1-dione] was 16 nM; that for `Cc1ccc(-n2nnc(C)c2COc2cc3c(cn2)CN(C(=O)C(C)C)CC3)cn1` [Example 39, 2-methyl-1-(6-{[4-methyl-1-(6-methylpyridin-3-yl)-1H-1,2,3-triazol-5-yl]methoxy}-1,2,3,4-tetrahydro-2,7-naphthyridin-2-yl)propan-1-one] was 30 nM; that for `Cc1nnn(-c2ccc(C(F)(F)F)nc2)c1COc1cc2c(cn1)CN(C(=O)C1CC1)CC2` [Example 51, 2-cyclopropanecarbonyl-6-({4-methyl-1-[6-(trifluoromethyl)pyridin-3-yl]-1H-1,2,3-triazol-5-yl}methoxy)-1,2,3,4-tetrahydro-2,7-naphthyridine] was 31 nM.
As for `Cc1nnn(-c2ccc(C(F)(F)F)nc2)c1COc1cc2c(cn1)CN(C(=O)CF)CC2` [Example 49, 2-fluoro-1-[6-({4-methyl-1-[6-(trifluoromethyl)pyridin-3-yl]-1H-1,2,3-triazol-5-yl}methoxy)-1,2,3,4-tetrahydro-2,7-naphthyridin-2-yl]ethan-1-one], the Ki was 15 nM.
The value for `CC(=O)N1CCc2cc(OCc3c(-c4ccc(C)nc4)nnn3C)ncc2C1` [Example 60, 1-(6-{[1-methyl-4-(6-methylpyridin-3-yl)-1H-1,2,3-triazol-5-yl]methoxy}-1,2,3,4-tetrahydro-2,7-naphthyridin-2-yl)ethan-1-one] was 22 nM; that for `CC(=O)N1CCc2cc(OCc3c(C)nnn3-c3ccc(C(F)(F)F)nc3)ncc2C1` [Example 47, 1-[6-({4-methyl-1-[6-(trifluoromethyl)pyridin-3-yl]-1H-1,2,3-triazol-5-yl}methoxy)-1,2,3,4-tetrahydro-2,7-naphthyridin-2-yl]ethan-1-one] was 25 nM.

What is called Ki is a dissociation constant, usually derived from enzyme kinetics or from competition with a known ligand.

(Values after patent US20240067637A1, “NAPHTHYRIDINE AND PYRIDO[3,4-c]PYRIDAZINE DERIVATIVES AS GABAA ALPHA 5 RECEPTOR MODULATORS” (Richter Gedeon Nyrt., priority 2020, published 2024).)
